Earlier results in article doi:10.1101/2025.09.24.678446, “Exploiting Peptide Chirality and Transport to Dissect the Complex Mechanism of Action of Host Peptides on Bacteria” (bioRxiv, 2025).

System: BacA

Q: With bleomycin as the substance, how does the “transport by BacA” value read?
A: BacA has previously been shown to transport many varieties of peptides, including bleomycin
